Reference: patent US11535621B2, “Heterobicyclic amides as inhibitors of CD38” (Ribon Therapeutics, Inc., priority 2019, dated 2022)

Target: Human CD38 (Homo sapiens (Human), UniProt P28907)
Test: CD38 enzyme assay
Format: biochemical
Details: 2 nM CD38, NAD+ substrate, absorbance at 405 nm
Excerpt: [formula] where SUBcmpd is the subtracted value for the individual compound treated well, SUBmin is the average of the subtracted values of the 4-(((1r,4r)-4-(2-methoxyethoxy)cyclohexyl)amino)-1-methyl-6-(thiazol-5-yl)quinolin-2(1H)-one positive control wells and SUBmax is the average of the subtracted values of the DMSO negative control wells.
The % inhibition values were plotted as a function of compound concentration and the following 4-parameter fit was applied to derive the IC50 values:
[formula] where top and bottom are normally allowed to float, but may be fixed at 100 or 0 respectively in a 3-parameter fit. The Hill Coefficient is normally allowed to float but may also be fixed at 1 in a 3-parameter fit. Y is the % inhibition and X is the compound concentration.

Human CD38, sequence (P28907 whole entry): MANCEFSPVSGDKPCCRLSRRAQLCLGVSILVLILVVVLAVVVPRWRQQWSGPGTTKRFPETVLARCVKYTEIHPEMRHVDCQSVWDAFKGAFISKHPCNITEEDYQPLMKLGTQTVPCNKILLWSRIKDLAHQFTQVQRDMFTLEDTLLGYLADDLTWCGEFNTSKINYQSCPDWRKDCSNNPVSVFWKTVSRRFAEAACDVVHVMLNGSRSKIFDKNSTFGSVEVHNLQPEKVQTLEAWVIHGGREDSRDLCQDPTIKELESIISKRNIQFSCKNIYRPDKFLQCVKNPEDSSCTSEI

Structure (SMILES) | IC50
O=C(NC1CCN(CC(F)(F)F)C1)c1nc(-n2ccnc2)nc2cc[nH]c12 (centres unmarked) [Example 68, 2-(1H-Imidazol-1-yl)-N-(1-(2,2,2-trifluoroethyl)pyrrolidin-3-yl)-5H-pyrrolo[3,2-d]pyrimidine-4-carboxamide] | 10 to 100 nM
COCCO[C@H]1CC[C@@H](NC(=O)c2nc(-n3ccnc3)nc3cc[nH]c23)CC1 [Example 69, 2-(1H-Imidazol-1-yl)-N-((1s,4s)-4-(2-methoxyethoxy)cyclohexyl)-5H-pyrrolo[3,2-d]pyrimidine-4-carboxamide] | 10 to 100 nM
CNC(=O)c1nc(-n2ccnc2)nc2cc[nH]c12 [Example 70, 2-(1H-Imidazol-1-yl)-N-methyl-5H-pyrrolo[3,2-d]pyrimidine-4-carboxamide] | 100 to 1000 nM
CNCCO[C@H]1CC[C@H](NC(=O)c2nc(-n3ccnc3)nc3cc[nH]c23)CC1 [Example 71, 2-(1H-Imidazol-1-yl)-N-((1r,4r)-4-(2-(methylamino)ethoxy)cyclohexyl)-5H-pyrrolo[3,2-d]pyrimidine-4-carboxamide] | 10 to 100 nM
CN(C)CCO[C@H]1CC[C@H](NC(=O)c2nc(-n3ccnc3)nc3cc[nH]c23)CC1 [Example 72, N-((1r,4r)-4-(2-(Dimethylamino)ethoxy)cyclohexyl)-2-(1H-imidazol-1-yl)-5H-pyrrolo[3,2-d]pyrimidine-4-carboxamide] | 10 to 100 nM
O=C(NC1CCNC1)c1nc(-n2ccnc2)nc2cc[nH]c12 (centres unmarked) [Example 73, 2-(1H-Imidazol-1-yl)-N-(pyrrolidin-3-yl)-5H-pyrrolo[3,2-d]pyrimidine-4-carboxamide] | 100 to 1000 nM
CN1CCC(NC(=O)c2nc(-n3ccnc3)nc3cc[nH]c23)C1 (centres unmarked) [Example 74, 2-(1H-Imidazol-1-yl)-N-(1-methylpyrrolidin-3-yl)-5H-pyrrolo[3,2-d]pyrimidine-4-carboxamide] | 100 to 1000 nM
CS(=O)(=O)N1CCC(NC(=O)c2nc(-n3ccnc3)nc3cc[nH]c23)CC1 [Example 75, 2-(1H-Imidazol-1-yl)-N-(1-(methylsulfonyl)piperidin-4-yl)-5H-pyrrolo[3,2-d]pyrimidine-4-carboxamide] | < 10 nM
O=C(NC1CCN(C2COC2)CC1)c1nc(-n2ccnc2)nc2cc[nH]c12 [Example 76, 2-(1H-Imidazol-1-yl)-N-(1-(oxetan-3-yl)piperidin-4-yl)-5H-pyrrolo[3,2-d]pyrimidine-4-carboxamide] | 10 to 100 nM
O=C(NC1CCC1)c1nc(-n2ccnc2)nc2cc[nH]c12 [Example 77, N-Cyclobutyl-2-(1H-imidazol-1-yl)-5H-pyrrolo[3,2-d]pyrimidine-4-carboxamide] | < 10 nM
O=C(NCC1CCCCC1)c1nc(-n2ccnc2)nc2cc[nH]c12 [Example 78, N-(Cyclohexylmethyl)-2-(1H-imidazol-1-yl)-5H-pyrrolo[3,2-d]pyrimidine-4-carboxamide] | 10 to 100 nM
O=C(NCc1ccccc1)c1nc(-n2ccnc2)nc2cc[nH]c12 [Example 79, N-Benzyl-2-(1H-imidazol-1-yl)-5H-pyrrolo[3,2-d]pyrimidine-4-carboxamide] | 100 to 1000 nM
CNC(=O)CO[C@H]1CC[C@H](NC(=O)c2nc(-n3ccnc3)nc3cc[nH]c23)CC1 [Example 80, 2-(1H-Imidazol-1-yl)-N-((1r,4r)-4-(2-(methylamino)-2-oxoethoxy)cyclohexyl)-5H-pyrrolo[3,2-d]pyrimidine-4-carboxamide] | 10 to 100 nM
O=C(Nc1ccccn1)c1nc(-n2ccnc2)nc2cc[nH]c12 [Example 81, 2-(1H-Imidazol-1-yl)-N-(pyridin-2-yl)-5H-pyrrolo[3,2-d]pyrimidine-4-carboxamide] | < 10 nM
O=C(Nc1ccccc1)c1nc(-n2ccnc2)nc2cc[nH]c12 [Example 82, 2-(1H-Imidazol-1-yl)-N-phenyl-5H-pyrrolo[3,2-d]pyrimidine-4-carboxamide] | < 10 nM
O=C(Nc1cccnc1)c1nc(-n2ccnc2)nc2cc[nH]c12 [Example 83, 2-(1H-Imidazol-1-yl)-N-(pyridin-3-yl)-5H-pyrrolo[3,2-d]pyrimidine-4-carboxamide] | < 10 nM
COc1ccc(NC(=O)c2nc(-n3ccnc3)nc3cc[nH]c23)nc1 [Example 84, 2-(1H-Imidazol-1-yl)-N-(5-methoxypyridin-2-yl)-5H-pyrrolo[3,2-d]pyrimidine-4-carboxamide] | < 10 nM
COc1ccc(NC(=O)c2nc(-n3ccnc3)nc3cc[nH]c23)cn1 [Example 85, 2-(1H-Imidazol-1-yl)-N-(6-methoxypyridin-3-yl)-5H-pyrrolo[3,2-d]pyrimidine-4-carboxamide] | < 10 nM
O=C(Nc1cc[nH]n1)c1nc(-n2ccnc2)nc2cc[nH]c12 [Example 86, 2-(1H-Imidazol-1-yl)-N-(1H-pyrazol-3-yl)-5H-pyrrolo[3,2-d]pyrimidine-4-carboxamide] | < 10 nM

Structure (SMILES) | IC50
O=C(Nc1ccc(Cl)cc1)c1nc(-n2ccnc2)nc2cc[nH]c12 [Example 87, N-(4-Chlorophenyl)-2-(1H-imidazol-1-yl)-5H-pyrrolo[3,2-d]pyrimidine-4-carboxamide] | < 10 nM
O=C(Nc1cccc(Cl)c1)c1nc(-n2ccnc2)nc2cc[nH]c12 [Example 88, N-(3-Chlorophenyl)-2-(1H-imidazol-1-yl)-5H-pyrrolo[3,2-d]pyrimidine-4-carboxamide] | < 10 nM
O=C(Nc1ccccc1Cl)c1nc(-n2ccnc2)nc2cc[nH]c12 [Example 89, N-(2-Chlorophenyl)-2-(1H-imidazol-1-yl)-5H-pyrrolo[3,2-d]pyrimidine-4-carboxamide] | < 10 nM
O=C(NC1CCCC1)c1nc(-n2ccnc2)nc2cc[nH]c12 [Example 90, N-Cyclopentyl-2-(1H-imidazol-1-yl)-5H-pyrrolo[3,2-d]pyrimidine-4-carboxamide] | < 10 nM
O=C(NC1CCOC1)c1nc(-n2ccnc2)nc2cc[nH]c12 (centres unmarked) [Example 91, 2-(1H-Imidazol-1-yl)-N-(tetrahydrofuran-3-yl)-5H-pyrrolo[3,2-d]pyrimidine-4-carboxamide] | < 10 nM
O=C(NC1CCCCCC1)c1nc(-n2ccnc2)nc2cc[nH]c12 [Example 92, N-Cycloheptyl-2-(1H-imidazol-1-yl)-5H-pyrrolo[3,2-d]pyrimidine-4-carboxamide] | < 10 nM
CC(C)NC(=O)c1nc(-n2ccnc2)nc2cc[nH]c12 [Example 93, 2-(1H-Imidazol-1-yl)-N-isopropyl-5H-pyrrolo[3,2-d]pyrimidine-4-carboxamide] | 10 to 100 nM
Cn1ccc(NC(=O)c2nc(-n3ccnc3)nc3cc[nH]c23)n1 [Example 94, 2-(1H-Imidazol-1-yl)-N-(1-methyl-1H-pyrazol-3-yl)-5H-pyrrolo[3,2-d]pyrimidine-4-carboxamide] | < 10 nM
Cn1cnc(NC(=O)c2nc(-n3ccnc3)nc3cc[nH]c23)c1 [Example 95, 2-(1H-Imidazol-1-yl)-N-(1-methyl-1H-imidazol-4-yl)-5H-pyrrolo[3,2-d]pyrimidine-4-carboxamide] | 10 to 100 nM
O=C(Nc1ccc(F)c(Cl)c1)c1nc(-n2ccnc2)nc2cc[nH]c12 [Example 96, N-(3-Chloro-4-fluorophenyl)-2-(1H-imidazol-1-yl)-5H-pyrrolo[3,2-d]pyrimidine-4-carboxamide] | < 10 nM
O=C(N[C@H]1CC[C@H](OCCN2CCOCC2)CC1)c1nc(-n2ccnc2)nc2cc[nH]c12 [Example 97, 2-(1H-Imidazol-1-yl)-N-((1r,4r)-4-(2-morpholinoethoxy)cyclohexyl)-5H-pyrrolo[3,2-d]pyrimidine-4-carboxamide] | 10 to 100 nM
O=C(Nc1cn[nH]c1)c1nc(-n2ccnc2)nc2cc[nH]c12 [Example 98, 2-(1H-Imidazol-1-yl)-N-(1H-pyrazol-4-yl)-5H-pyrrolo[3,2-d]pyrimidine-4-carboxamide] | < 10 nM
Cn1cc(NC(=O)c2nc(-n3ccnc3)nc3cc[nH]c23)cn1 [Example 99, 2-(1H-Imidazol-1-yl)-N-(1-methyl-1H-pyrazol-4-yl)-5H-pyrrolo[3,2-d]pyrimidine-4-carboxamide] | < 10 nM
COCCOc1cccc(NC(=O)c2nc(-n3ccnc3)nc3cc[nH]c23)c1 [Example 100, 2-(1H-Imidazol-1-yl)-N-(3-(2-methoxyethoxy)phenyl)-5H-pyrrolo[3,2-d]pyrimidine-4-carboxamide] | < 10 nM
O=C(N[C@H]1CC[C@H](NCC(F)(F)F)CC1)c1nc(-n2ccnc2)nc2cc[nH]c12 [Example 101, 2-(1H-imidazol-1-yl)-N-((1r,4r)-4-((2,2,2-trifluoroethyl)amino)cyclohexyl)-5H-pyrrolo[3,2-d]pyrimidine-4-carboxamide] | 10 to 100 nM
O=C(N[C@H]1CC[C@@H](NCC(F)(F)F)CC1)c1nc(-n2ccnc2)nc2cc[nH]c12 [Example 102, 2-(1H-imidazol-1-yl)-N-((1s,4s)-4-((2,2,2-trifluoroethyl)amino)cyclohexyl)-5H-pyrrolo[3,2-d]pyrimidine-4-carboxamide] | 10 to 100 nM
O=C(N[C@H]1CC[C@H](NCCC(F)(F)F)CC1)c1nc(-n2ccnc2)nc2cc[nH]c12 [Example 103, 2-(1H-imidazol-1-yl)-N-((1r,4r)-4-((3,3,3-trifluoropropyl)amino)cyclohexyl)-5H-pyrrolo[3,2-d]pyrimidine-4-carboxamide] | 10 to 100 nM
N#CCO[C@H]1CC[C@H](NC(=O)c2nc(-n3ccnc3)nc3cc[nH]c23)CC1 [Example 104, N-((1r,4r)-4-(cyanomethoxy)cyclohexyl)-2-(1H-imidazol-1-yl)-5H-pyrrolo[3,2-d]pyrimidine-4-carboxamide] | < 10 nM
O=C(N[C@H]1CC[C@H](NCC(F)F)CC1)c1nc(-n2ccnc2)nc2cc[nH]c12 [Example 105, N-((1r,4r)-4-((2,2-difluoroethyl)amino)cyclohexyl)-2-(1H-imidazol-1-yl)-5H-pyrrolo[3,2-d]pyrimidine-4-carboxamide] | 10 to 100 nM
